We go through 14 molecules from patent publication US9227956B2 (Pfizer Inc., priority 2013, dated 2016).

Data set [1] has as its system human PCSK9. Nature of the data set: PCSK9 AlphaLISA assay, PCSK9 lowering in WT7 cells. Conditions: WT7 cells (Huh7 stably over-expressing human PCSK9); secreted PCSK9 by AlphaLISA; overnight incubation (16-24 h); top concentration 20 μM; read-out: Cell Based PCSK9 IC50. The source says:
An in-vitro AlphaLISA assay (Perkin Elmer) was developed in order to quantitate the level of PCSK9 secreted into the cell culture media following compound treatment. To detect and measure PCSK9 protein an in-house generated anti-PCSK9 antibody was coupled to AlphaLISA acceptor beads by an external vendor (PerkinElmer) and a second internally developed anti-PCSK9 antibody with an epiptope distinct from that of the acceptor beads was biotinylated in house. Streptavidin coated-donor beads (Perkin Elmer) are also included in the assay mixture which then binds the biotinylated anti-PCSK9 antibody and in the presence of PCSK9 this donor complex and acceptor beads are brought into close proximity. […] The ability of compound to modulate PCSK9 protein levels in conditioned media by AlphaLISA was assessed in the human hepatocellular carcinoma cell line Huh7, stably over-expressing human PCSK9. […] Following plasmid transfection the stable WT7 clone was identified and maintained under Zeocin selection. Compound screening was performed in 384-well plates where WT7 cells were plated at a density of 7500 cells per well in 20 μL of tissue culture media containing compound in an eleven point, 0.5 log dilution format at a high treatment concentration of 20 μM in a final volume of 0.5% DMSO. In additional to these test compound conditions each screening plate also included wells that contained 20 μM puromycin as a positive assay control defined as high percent effect, HPE, as well as wells containing media in 0.5% DMSO as a negative treatment control defined as zero percent effect, ZPE. After overnight compound incubation (16-24 h) the tissue culture media was collected and an aliquot from each sample was transferred to individual wells of a 384-well white Optiplate (Perkin Elmer). The coupled antibodies and donor beads were added to the assay plates in a buffer composed of 30 mM Tris pH 7.4, 0.02% Tween-20 and 0.02% Casein. Anti-PCSK9 acceptor beads (final concentration of 10 μg/mL) and anti-PCSK9 biotinylated antibody (final concentration of 3 nM) were added and incubated for 30 minutes at room temperature followed by the addition of the streptavidin donor beads (final concentration 40 μg/mL) for an additional 60 minutes. Additionally a standard curve was generated where AlphaLISA reagents were incubated in wells spiked with recombinant human PCSK9 diluted in tissue culture media from 5000 ng/mL to 0.6 ng/mL. […] The test compound data were converted into percent effect, using the ZPE and HPE controls as 0% and 100% activity, respectively. The equation used for converting each well reading into percent effect was:
[formula] IC50 was then calculated and reported as the midpoint in the percent effect curve in molar units and the values are reported under the Cell Based PCSK9 IC50 (μM) column header within Table 1 Biological Data. Additionally, to monitor the selectivity of compound response for PCSK9 the level of a second secreted protein, Transferrin, was measured from the same conditioned media treated with test compound by AlphaLISA. […] To detect and quantify effects on Transferrin 0.01 mL of the culture media was transferred to a 384-well white Optiplate and 0.01 mL of media was added to bring the volume to 0.02 ml. Anti-Transferrin acceptor beads were added to a final concentration of 10 μg/mL, biotinylated anti-Transferrin at 3 nM and streptavidin donor beads at 40 μg/mL. Percent effect and IC50 for Transferrin was computed in a similar manner as that described for PCSK9.
On the technique in general: In Alpha technology, singlet oxygen from a donor bead excites a nearby acceptor bead.

For data set [2], the system named is human PCSK9. Nature of the data set: Cell Free PCSK9 Assay (PCSK9-luciferase RNA translated in HeLa cell lysate). It counts as biochemical. Conditions: 30° C. for 45 minutes, luciferase readout, top concentration 100 μM. How it is done: In order to eliminate the permeability barrier inherent to the WT7 and SCHH cell-based assays a cell-free system was also established to access compound activity. […] The construct was then in-vitro transcribed using the MEGAscript T7 Kit (Life Technologies) and RNA subsequently purified incorporating the MEGAclear Kit (Life Technologies) according to manufacturer's protocols. […] Growth was in a 50 L wavebag at a rocker speed of 25 rpm and angle 6.1 with 5% CO2 and 0.2 LPM flow rate with cells harvested at a density of 2-2.5e6/ml. Lysates additionally contained 1 tablet of Roche cOmplete-EDTA protease inhibitors per 50 ml with tris(2-carboxyethyl)phosphine (Biovectra) substituted for dithiothreitol, and were clarified by an additional final centrifugation at 10,000 rpm in a Sorvall SS34 rotor at 4° C. for 10 minutes. Compound screening was performed in 384-well plates in an eleven point, 0.5 log dilution format at a top test compound concentration of 100 μM in a final volume of 0.5% DMSO. […] Upon assay completion 1 μL from each reaction solution was removed and transferred to a second 384-well Optiplate (Perkin Elmer) containing 24 μL of SteadyGlo (Promega) and signal intensity was measured on the Envision (Perkin Elmer) using the enhanced luminescence protocol. […] The test compound data were converted into percent effect, using the ZPE and HPE controls as 0% and 100% activity, respectively, applying Equation 1 above. IC50 was then calculated and reported as the midpoint in the percent effect curve in molar units and the values are reported under the Cell Free PCSK9 IC50 (μM) column header within Table 1 Biological Data.

For data set [3], the system named is PCSK9. Nature of the data set: PCSK9 lowering in sandwich culture human hepatocytes (SCHH). It counts as cell-based. Conditions: maximum response versus vehicle. As for the experimental part:
Test compound in-vitro pharmacokinetic and pharmacodynamic relationships were measured in sandwich culture primary cryopreserved human hepatocytes. Within these studies SCHH cells (BD Biosciences IVT) were thawed at 37° C. then placed on ice, after which the cells were added to pre-warmed (37° C.) In VitroGRO-HT media and centrifuged at 50×g for 3 min. The cell pellet was re-suspended to 0.8×10^6 cells/mL in InVitroGRO-CP plating medium and cell viability determined by trypan blue exclusion. On day 1, hepatocyte suspensions were plated in BioCoat 96-well plates at a density of 80000 cells/well in a volume of 0.1 mL/well. After 18 to 24 hours of incubation at 37° C. in 5% CO2, cells were overlaid with ice-cold 0.25 mg/mL BD Matrigel Matrix Phenol Red-Free in incubation medium at 0.1 mL/well. Cultures were maintained at 37° C. in 5% CO2 in InVitroGRO-HI (FBS-free media), which was replaced every 24 hours and time course treatments were initiated on day 5. Prior to compound treatment cell plates were washed 3 times with 0.1 mL/well InVitroGRO-HI and 0.09 mL of media was added back in preparation for the compound additions. 1 uL of either DMSO or compound DMSO stocks at 30 mM, 10 mM, 3 mM and 1 mM were stamped into 96 well V bottom polypropylene plates. 0.099 mL of media was added to the compound plate and mixed thoroughly before the addition of 0.010 mL from the interim compound plate to the cell plate. […] At the indicated time, 0.08 mL of media was removed from the cell plates and frozen for subsequent analysis of secreted PCSK9 by AlphaLISA and for determination of drug levels in the media by liquid chromatography-tandem mass spectrometry (LC-MS/MS). The remaining media was then aspirated and the cell layers were washed 3× with ice cold Hanks Balanced Salt Solution (HBSS) under shaking conditions to remove the matrigel overlay and plates were then stored at −20° C. for subsequent determination of drug levels in the cells by LC-MS/MS. AlphaLISA determination of PCSK9 protein levels within the conditioned media was performed ultilizing the identical reagents and detection protocols described above for the WT7 cells.

One may read the IC50 as the concentration at which inhibition is half-maximal. Regarding `CCC(=O)OC(C(C)C)n1nnc(-c2c(-c3ccc(C(=O)N(c4ncccc4C)[C@@H]4CCCNC4)cc3)cnn2C)n1` (single isomer, unassigned) [Example 48], the IC50 in data set [1] was over 20 µM; in data set [2] it was 7.68 µM. Also, in data set [3] (at 6 h at 30 uM), the “Sandwich Culture Hepatocyte (SCHH) PCSK9 Lowering” value is reported as 16% at 6 h at 30 uM.

For the molecule `CCC(=O)OC(C(C)C)n1nnc(-c2c(-c3ccc(C(=O)N(c4ncccc4C)[C@@H]4CCCNC4)cc3)cnn2C)n1` (single isomer, unassigned) [Example 49], the 50% inhibitory concentration (IC50) in data set [1] is over 20 µM; in data set [2] it was 15.4 µM. Also, the “Sandwich Culture Hepatocyte (SCHH) PCSK9 Lowering” value in data set [3] (at 6 h at 30 uM) came out at 0% at 6 h at 30 uM.

Turning to `Cc1cccnc1N(C(=O)c1ccc(-c2cnn(C)c2-c2nnn(C(C)OC(=O)C(C)C)n2)cc1)[C@@H]1CCCNC1` (single isomer, unassigned) [Example 50], the IC50 in data set [1] was over 20 µM; in data set [2], 8.03 µM. In addition, the “Sandwich Culture Hepatocyte (SCHH) PCSK9 Lowering” value in data set [3] (at 6 h at 30 uM) was 37% at 6 h at 30 uM.

As for `Cc1cccnc1N(C(=O)c1ccc(-c2cnn(C)c2-c2nnn(C(C)OC(=O)C(C)C)n2)cc1)[C@@H]1CCCNC1` (single isomer, unassigned) [Example 51], the IC50 in data set [1] was over 20 µM; in data set [2], 3.56 µM. Besides, in data set [3] (at 6 h at 30 uM), the “Sandwich Culture Hepatocyte (SCHH) PCSK9 Lowering” value is 48% at 6 h at 30 uM.

Take `CCC(OC(=O)C(C)C)n1nnc(-c2c(-c3ccc(C(=O)N(c4ncccc4C)[C@@H]4CCCNC4)cc3)cnn2C)n1` (single isomer, unassigned) [Example 52]: the figures for the IC50 in data set [1] and in data set [2] were over 20 µM and 10.7 µM, respectively. Further, in data set [3] (at 6 h at 30 uM), the “Sandwich Culture Hepatocyte (SCHH) PCSK9 Lowering” value is given as 25% at 6 h at 30 uM.

In the case of `CCC(OC(=O)C(C)C)n1nnc(-c2c(-c3ccc(C(=O)N(c4ncccc4C)[C@@H]4CCCNC4)cc3)cnn2C)n1` (single isomer, unassigned) [Example 53], the IC50 in data set [1] was over 20 µM; in data set [2] it was 31.8 µM. The “Sandwich Culture Hepatocyte (SCHH) PCSK9 Lowering” value in data set [3] (at 6 h at 30 uM) was determined as 0% at 6 h at 30 uM.

Take `Cc1cccnc1N(C(=O)c1ccc(-c2cnn(C)c2-c2nnn(C(OC(=O)C(C)C)C(C)C)n2)cc1)[C@@H]1CCCNC1` (single isomer, unassigned) [Example 54]: the IC50 in data set [1] was over 20 µM; in data set [2], 12.8 µM. In addition, in data set [3] (at 6 h at 30 uM), the “Sandwich Culture Hepatocyte (SCHH) PCSK9 Lowering” value came out at 29% at 6 h at 30 uM.

Regarding `Cc1cccnc1N(C(=O)c1ccc(-c2cnn(C)c2-c2nnn(C(OC(=O)C(C)C)C(C)C)n2)cc1)[C@@H]1CCCNC1` (single isomer, unassigned) [Example 55], the figures for the IC50 in data set [1] and in data set [2] were over 19.2 µM and 19.8 µM, respectively. For the same molecule, in data set [3] (at 6 h at 30 uM), the “Sandwich Culture Hepatocyte (SCHH) PCSK9 Lowering” value is 40% at 6 h at 30 uM.

In the case of `Cc1cccnc1N(C(=O)c1ccc(-c2cnn3cccnc23)cc1)[C@@H]1CCCNC1` [Example 1, N-(3-methylpyridin-2-yl)-N-[(3R)-piperidin-3-yl]-4-(pyrazolo[1,5-a]pyrimidin-3-yl)benzamide], the values for the IC50 in data set [1] and in data set [2] were 3.2 µM and 0.44 µM, respectively. In addition, the “Sandwich Culture Hepatocyte (SCHH) PCSK9 Lowering” value in data set [3] (at 8 h at 30 μM) was found to be 74% at 8 h at 30 μM.

As for `CCOC(=O)OC(C)OC(=O)c1c(-c2ccc(C(=O)N(c3ncccc3Cl)[C@@H]3CCCNC3)cc2)cnn1C` (stereo partly drawn) [Example 8, 1-[(ethoxycarbonyl)oxy]ethyl 4-(4-{(3-chloropyridin-2-yl)[(3R)-piperidin-3-yl]carbamoyl}phenyl)-1-methyl-1H-pyrazole-5-carboxylate], the IC50 in data set [1] is 9.5 µM; in data set [2], 3.7 µM. Besides, the “Sandwich Culture Hepatocyte (SCHH) PCSK9 Lowering” value in data set [3] (at 8 h at 30 μM) is given as 70% at 8 h at 30 μM.

In the case of `COC(=O)c1c(-c2ccc(C(=O)N(c3ncccc3Cl)[C@@H]3CCCNC3)cc2)cnn1C` [Example 10, Methyl 4-(4-{(3-chloropyridin-2-yl)[(3R)-piperidin-3-yl]carbamoyl}phenyl)-1-methyl-1H-pyrazole-5-carboxylate], the concentration for half-maximal inhibition (IC50) in data set [1] is 1.5 µM; in data set [2], 0.64 µM. The “Sandwich Culture Hepatocyte (SCHH) PCSK9 Lowering” value in data set [3] (at 8 h at 30 μM) worked out at 87% at 8 h at 30 μM.

For the molecule `Cn1ncc(-c2ccc(C(=O)N(c3nccc4ccn(C)c34)[C@@H]3CCCNC3)cc2)c1C(=O)O` [Example 12, 1-methyl-4-(4-{(1-methyl-1H-pyrrolo[2,3-c]pyridin-7-yl)[(3R)-piperidin-3-yl]carbamoyl}phenyl)-1H-pyrazole-5-carboxylic acid], the IC50 in data set [1] is over 20 µM; in data set [2], 1.7 µM. In addition, the “Sandwich Culture Hepatocyte (SCHH) PCSK9 Lowering” value in data set [3] (at 8 h at 30 μM) worked out at 36% at 8 h at 30 μM.

Take `COC(=O)c1c(-c2ccc(C(=O)N(c3ncccc3C)[C@@H]3CCCNC3)cc2)cnn1C` [Example 13, Methyl 1-methyl-4-(4-{(3-methylpyridin-2-yl)[(3R)-piperidin-3-yl]carbamoyl}phenyl)-1H-pyrazole-5-carboxylate]: the concentration for half-maximal inhibition (IC50) stood at 2.3 µM in data set [1] and 0.8 µM in data set [2]. Also, in data set [3] (at 8 h at 30 μM), the “Sandwich Culture Hepatocyte (SCHH) PCSK9 Lowering” value is given as 83% at 8 h at 30 μM.

Turning to `CCOC(=O)O[C@@H](C)OC(=O)c1c(-c2ccc(C(=O)N(c3ncccc3Cl)[C@@H]3CCCNC3)cc2)cnn1C` [Example 15a, (1S)-1-[(ethoxycarbonyl)oxy]ethyl 4-(4-{(3-chloropyridin-2-yl)[(3R)-piperidin-3-yl]carbamoyl}phenyl)-1-methyl-1H-pyrazole-5-carboxylate], the IC50 amounted to 7.3 µM in data set [1] and 3.1 µM in data set [2]. Also, the “Sandwich Culture Hepatocyte (SCHH) PCSK9 Lowering” value in data set [3] (at 8 h at 30 μM) turned out to be 72% at 8 h at 30 μM.
